Entries after “also recorded” stand apart in the source; their conditions may differ. Where two headings read alike, the source gives them in different places.
Legend:
AB1-HA mesothelioma [1] = experiment: in vivo co-treatment with anti-CTLA-4 in AB1-HA tumour bearing mice; design: species or system BALB/c mice; conditions: for anti-tumour response / response rate to anti-CTLA-4 on co-treatment: drug in combination with anti-CTLA-4
[2] = test system: Renca kidney cancer cells; type: in vivo, BALB/c mice
Line-1 lung cancer cells = experiment: in vivo co-treatment with anti-CTLA4 in Line-1 lung cancer model; design: species or system BALB/c mice
AB1-HA mesothelioma [3] = experiment: in vivo co-treatment with anti-GITR in AB1-HA tumour bearing mice; design: species or system BALB/c mice; conditions: drug in combination with anti-GITR
[4] = mouse, in vivo, ip, 400 mg/kg
[5] = mice, i.p. administration; cited from earlier work
melanoma = melanoma patients after ipilimumab; cited from earlier work

| Compound | anti-tumour response / response rate to anti-CTLA-4 on co-treatment (AB1-HA mesothelioma [1]) | other results |
| --- | --- | --- |
| CC1=C(/C=C/C(C)=C/C=C/C(C)=C/C(=O)O)C(C)(C)CCC1 [ATRA, All-trans Retinoic Acid] | clear effect; also recorded: increased anti-tumour response | survival / clinical efficacy of CTLA4 blockade on co-treatment ([2]; mouse, in vivo): improve the clinical efficacy; also recorded: improved survival |
| O=S(=O)(c1cccc2cnccc12)N1CCCNCC1 [Fasudil] | increased the response rate | growth delay (AB1-HA mesothelioma [1]; drug alone): did not result in any growth delay |
| O=[N+]([O-])O[C@H]1CO[C@H]2[C@@H]1OC[C@H]2O[N+](=O)[O-] [ISDN, Isosorbide dinitrate] | increase the therapeutic efficacy; also recorded: increased the response rate | complete regression / clinical efficacy of CTLA4 blockade on co-treatment (Line-1 lung cancer cells; drug in combination with anti-CTLA4): improve the clinical efficacy; also recorded: complete regression in a substantial proportion of mice; complete regression (Line-1 lung cancer cells; either treatment alone): not observed; survival / efficacy of checkpoint blockade with anti-GITR on co-treatment (AB1-HA mesothelioma [3]): could equally be improved; also recorded: improved survival; survival / clinical efficacy of CTLA4 blockade on co-treatment ([2]; Renca kidney cancer, drug in combination with anti-CTLA4): improve the clinical efficacy; also recorded: improved survival |
| CCOC(=O)N1CCN(/[N+]([O-])=N/Oc2ccc([N+](=O)[O-])cc2[N+](=O)[O-])CC1 [JS-K] | improves the clinical benefit | – |
| NC(=NCCC[C@H](N)C(=O)O)N[N+](=O)[O-] [L-NNA] | diminished; also recorded: abrogated the anti-tumour effect | – |
| Cc1cc(Nc2cc(N3CCN(C)CC3)nc(Sc3ccc(NC(=O)C4CC4)cc3)n2)n[nH]1 [VX-680] | significantly increased | – |
| CN1CC[C@H](c2c(O)cc(O)c3c(=O)cc(-c4ccccc4Cl)oc23)[C@H](O)C1 [flavopiridol] | increased the response rate | – |
| COc1c2c(cc3c1OCO3)CCN(C)C2 [hydrocotarnine] | increased anti-tumour response | – |
| Cc1cc2c(cc1S(N)(=O)=O)S(=O)(=O)CCC2 [meticrane] | clear effect; also recorded: increased anti-tumour response | clinical signs [4]: slightly ruffled; LD50 [5]: 10000 mg/kg |
| Cc1ncc(CO)c(CO)c1O [pyridoxine] | clear effect; also recorded: increased anti-tumour response | – |
| ipilimumab | – | 7-year survival (melanoma): 17% |
